Laboratory results reported in patent publication US9561228B2 (Celgene Avilomics Research, Inc., priority 2013, dated 2017).
pEC50, pIC50: −log10 of the molar value. Read-outs that look alike come from different tables or passages of the source.

How the values were obtained:
[1] = target: T1, MEK1 activated ERK1 (Homo sapiens, UniProt P27361); test: Omnia continuous-read kinase assay for potency against MEK1 activated ERK1; type: biochemical
T1 construct: purchased Millipore (Billerica, Mass.) 14-439-K
Summary of the method: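 Apparent IC50 came from initial reaction slopes (RFU vs time) plotted against log inhibitor with a variable-slope fit. Reactions were started with ERK1 (4 nM final) added to 50 μM ATP, roughly at its appKM, and 10 μM Sox-conjugated ST17 peptide in 20 mM Tris pH 7.5, 5 mM MgCl2. Fluorescence was monitored every 71 seconds.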

[2] = test system: ERK1/2 phosphorylation of p90RSK in A375 cells; test: Detection of total and phosphor-RSK by MSD ELISA (A375); type: cell-based; conditions: Homo sapiens, A-375, read-out: ERK1/ERK2 PRSK A375 EC50
Protocol: Detection of Total and Phosphor-RSK by MSD ELISA (A375)
(§1) The protocol below describes an assay to measure the kinase activity of ERK1/2 to phosphorylate a substrate, p90RSK, in the presence or absence of a test compound.
A375 cells were grown in DMEM/10% FBS. Twenty four hours prior to the assay, 50,000 cells per well were plated in a 96 well flat bottom plate. Once cells attached to the plate, the medium was replaced with 100 ul of DMEM/0.1% FBS. Cells were cultured overnight in an incubator at 37° C.
Compound stock solutions of 10 mM in DMSO were prepared. 1000× dilutions were then prepared in DMSO. 1 uL of DMSO solution was then transferred to 1 ml DMEM/0.1% FBS in a deep well plate. Cell plate media was discarded, followed by addition of 100 uL of the compound-containing media. The preparation was incubated at 37° C. for 2 hrs.
Cell lysates were prepared as described below.
pRSK or Total RSK MSD Assay
(§2) MSD plates: Blank MSD plates were coated with 30 uL capture antibody (BD 610226) at a final concentration of 1 ug/mL in PBS. Both pRSK and total RSK MSD assays used the same capture antibody at the same concentration. Antibody stock concentration was 250 ug/mL. Once antibody solution was added to the MSD plate, the sides were tapped to be certain it was coated completely (visual inspection). It was then covered and placed at 4° C. overnight on a level surface.
(§3) Block MSD Plate: The coating antibody was removed and the plate was washed on a plate washer in MSD wash buffer. The last bit of wash solution was tapped out and 150 uL/well of 3% BSA in MSD wash buffer was added in. The preparation was placed on a shaker at room temperature for at least an hour.
Add samples: Media was removed from compound-treated cells and replaced with 55 uL/well MSD cell lysis buffer containing protease and phosphotase I & II inhibitors. The preparation was incubated on a shaker in a cold room for 30-45 min. The blocked MSD plate was washed a on plate washer, tapping out the last bit of wash solution, followed by addition of 50 uL (of the 55 ul) cell lysate in a well-well transfer. The preparation was covered and incubated on a shaker at room temp for 2 hours. The lysate was removed, washed on a plate washer 3 times, and the last bit of wash buffer was tapped out and replace with 25 uL/well detection antibody (described below).
For pRSK detection, a pRSK antibody stock of 21 ug/mL was prepared as follows: 1 ug/mL pRSK Ser380 antibody (Cell Signaling Technology, Cat. #9335)+1:750 anti-rabbit SulfoTag (Mesoscale Discovery, Cat. # R32AB-1) in 1% BSA in MSD wash buffer.
(§4) For total RSK detection, a total RSK antibody stock of 200 ug/mL was prepared as follows: 1 ug/mL total RSK (Santa Cruz sc-231G) antibody+1:750 anti-goat SulfoTag (from MSD, R32AG-1) in 1% BSA in MSD wash buffer.
The plate was incubated for 1 hr at room temperature on a shaker, followed by three washings. The last bit of wash buffer was tapped out. 150 uL/well 1×MSD Read buffer was added and the plate was then analyzed.

[3] = test system: ERK1/2 phosphorylation of p90RSK in HCT116 cells; test: Detection of total and phospho-RSK by MSD ELISA (HCT116); type: cell-based; conditions: Homo sapiens, HCT-116, read-out: ERK1/ERK2 PRSK HCT116 EC50
Protocol: Detection of Total and Phospho-RSK by MSD ELISA (HCT116)
as §1
HCT116 cells were grown in RPMI/10% FBS. Prior to the assay, 50,000 cells per well were plated in a 96 well flat bottom plate. Cells were cultured overnight in an incubator at 37° C.
Compound stocks were 10 mM in DMSO. A 1000× dilution was made in DMSO. 1 uL of the DMSO solution was transferred to 1 ml RPMI/10% FBS in a deep well plate. Media in the cell plate was discarded, and 100 uL of the compound-containing media was added. The preparation was incubated at 37° C. for 2 hrs.
Preparation of cell lysates are described below.
pRSK or total RSK MSD Assay
as §2, with “to” for “to the”
as §3, with “uL/well” for “uL/well of”, “BSA (MSD Blocker A)” for “BSA”, “added.” for “added in.”
Add samples: Media was removed from compound-treated cells and replaced with 55 uL/well MSD cell lysis buffer containing protease and phosphotase I & II inhibitors. The preparations was incubate on a shaker in a cold room for 30-45 min. The blocked MSD plate was washed on a plate washer, and the last bit of wash solution was tapped out. Next was added 50 uL (of the 55 uL) cell lysate in a well-well transfer. The preparation was covered and incubated on shaker at room temp for 2 hours. The lysate was then removed and washed on plate washer 3 times. The last bit of wash buffer was then tapped out and replaced with 25 uL/well detection antibody (described below).
For pRSK detection, a pRSK antibody stock of 21 ug/mL was prepared as follows: 1 ug/mL pRSK Ser380 antibody (Cell Signaling Technology, Cat. #9335)+1:750 anti-rabbit SulfoTag (from MSD, R32AB-1) in 1% BSA in MSD wash buffer.
as §4
The plate was incubated for 1 hr at room temperature on a shaker, followed by three washes. The last bit of wash buffer was tapped out. Next, 150 uL/well 1×MSD Read buffer was added and the plate was analyzed by the MSD reader.

[4] = test system: ERK1/2 phosphorylation of p90RSK in HT29 cells; test: pRSK MSD Assay in HT29 cells; type: cell-based; conditions: Homo sapiens, HT-29, read-out: ERK1/ERK2 PRSK MSD HT29 EC50
Summary of the method: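 Serum-starved HT29 cells (0.1% FBS overnight) treated with test compound for 120 min at 37° C, then lysed with protease and phosphatase inhibitors. Phospho-p90RSK quantified by MSD sandwich immunoassay: RSK capture antibody, phospho-RSK detection antibody plus Sulfo-tagged antibody, electrochemiluminescence read.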

T1 sequence (P27361 whole entry): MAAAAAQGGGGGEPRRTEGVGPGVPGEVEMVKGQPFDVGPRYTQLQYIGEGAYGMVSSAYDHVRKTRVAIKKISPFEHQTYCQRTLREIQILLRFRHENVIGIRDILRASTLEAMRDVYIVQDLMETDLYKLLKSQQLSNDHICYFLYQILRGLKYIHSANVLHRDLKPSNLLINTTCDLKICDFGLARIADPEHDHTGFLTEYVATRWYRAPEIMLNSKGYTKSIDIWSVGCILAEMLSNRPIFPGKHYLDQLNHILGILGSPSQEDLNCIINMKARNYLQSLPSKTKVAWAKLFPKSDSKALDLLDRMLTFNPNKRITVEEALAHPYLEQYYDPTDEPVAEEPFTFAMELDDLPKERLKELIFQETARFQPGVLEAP

Row | pIC50 ([1]; MEK1 activated ERK1, ATP at KM, read-out: ERK1 Omnia WT ATP KM IC50) | pEC50 [2] | pEC50 [3] | pIC50 ([1]; ATP at KM, WT) | pEC50 [4] | SMILES
1 | 6.00 to 6.30 | < 6.00 | < 6.00 |  |  | C=CC(=O)Nc1cc(C)ccc1Nc1nc(N[C@H]2CCN(S(=O)(=O)C=C)C2)ncc1C(F)(F)F [Compound I-279, (S)—N-(5-Methyl-2-((5-(trifluoromethyl)-2-((1-(vinylsulfonyl)pyrrolidin-3-yl)amino)pyrimidin-4-yl)amino)phenyl)acrylamide]
2 |  | 6.00 to 6.30 | 6.00 to 6.30 | 6.00 to 6.30 |  | C=CC(=O)Nc1cc(C)ccc1Nc1nc(Nc2cc(OC)nn2C)ncc1C(F)(F)F [Compound I-430, N-(2-((2-((3-methoxy-1-methyl-1H-pyrazol-5-yl)amino)-5-(trifluoromethyl)pyrimidin-4-yl)amino)-5-methylphenyl)acrylamide]
3 |  | 6.30 to 7.00 | 6.00 to 6.30 | < 6.00 |  | C=CC(=O)Nc1cc(C)ccc1Nc1nc(Nc2cc(OC)ncc2CF)ncc1C(F)(F)F [Compound I-429, N-(2-((2-((5-(fluoromethyl)-2-methoxypyridin-4-yl)amino)-5-(trifluoromethyl)pyrimidin-4-yl)amino)-5-methylphenyl)acrylamide]
4 |  | 6.30 to 7.00 | 6.30 to 7.00 | < 6.00 |  | C=CC(=O)Nc1cc(C)ccc1Nc1nc(Nc2cc(OC)ncc2CO)ncc1C(F)(F)F [Compound I-428, N-(2-((2-((5-(hydroxymethyl)-2-methoxypyridin-4-yl)amino)-5-(trifluoromethyl)pyrimidin-4-yl)amino)-5-methylphenyl)acrylamide]
5 |  | 6.30 to 7.00 | > 7.00 |  | > 7.00 | C=CC(=O)Nc1cc(OCC(=O)N2CCN(S(C)(=O)=O)CC2)ccc1Nc1nc(Nc2cc(OC)ncc2C)ncc1C(F)(F)F [Compound I-405, N-(2-((2-((2-methoxy-5-methylpyridin-4-yl)amino)-5-(trifluoromethyl)pyrimidin-4-yl)amino)-5-(2-(4-(methylsulfonyl)piperazin-1-yl)-2-oxoethoxy)phenyl)acrylamide]
6 |  | > 7.00 | 6.30 to 7.00 |  | > 7.00 | C=CC(=O)Nc1cc(Cl)ccc1Nc1nc(Nc2cc(OC)ncc2C)ncc1C(F)(F)F [Compound I-289, N-(5-Chloro-2-((2-((2-methoxy-5-methylpyridin-4-yl)amino)-5-(trifluoromethyl)pyrimidin-4-yl)amino)phenyl)acrylamide]
7 |  | < 6.00 | > 7.00 |  | > 7.00 | C=CC(=O)Nc1cc(OC)ccc1Nc1nc(Nc2cc(OC)nc(N3CCN(C(C)=O)CC3)c2)ncc1Cl [Compound I-297, N-(2-((2-((2-(4-acetylpiperazin-1-yl)-6-methoxypyridin-4-yl)amino)-5-chloropyrimidin-4-yl)amino)-5-methoxyphenyl)acrylamide]
8 |  | 6.30 to 7.00 | 6.30 to 7.00 |  | 6.30 to 7.00 | C=CC(=O)Nc1cc(C)ccc1Nc1nc(Nc2cc(OC)ncc2OC)ncc1C(F)(F)F [Compound I-406, N-(2-((2-((2,5-dimethoxypyridin-4-yl)amino)-5-(trifluoromethyl)pyrimidin-4-yl)amino)-5-methylphenyl)acrylamide]
9 |  | < 6.00 | < 6.00 |  | < 6.00 | C=CC(=O)Nc1ccccc1Nc1nc(Nc2ccnc(NC)c2)ncc1C(F)(F)F [Compound I-321, N-(2-((2-((2-(methylamino)pyridin-4-yl)amino)-5-(trifluoromethyl)pyrimidin-4-yl)amino)phenyl)acrylamide]
10 |  | < 6.00 | < 6.00 |  | < 6.00 | C=CC(=O)Nc1cc(C)ccc1Nc1nc(N[C@H]2CCCN(S(=O)(=O)C=C)C2)ncc1C(F)(F)F [Compound I-277, (S)—N-(5-Methyl-2-((5-(trifluoromethyl)-2-((1-(vinylsulfonyl)piperidin-3-yl)amino)pyrimidin-4-yl)amino)phenyl)acrylamide]
11 |  | 6.30 to 7.00 | 6.30 to 7.00 |  | > 7.00 | C=CC(=O)Nc1cc(C)ccc1Nc1nc(Nc2cc(OC)nc(N3CCC(O)CC3)c2)ncc1C(F)(F)F [Compound I-332, N-(2-((2-((2-(4-hydroxypiperidin-1-yl)-6-methoxypyridin-4-yl)amino)-5-(trifluoromethyl)pyrimidin-4-yl)amino)-5-methylphenyl)acrylamide]
